{
  "source": "PubChem BioAssay AID330",
  "about": "(DTP/NCI, 2004)",
  "tested_on": "P388 leukemia ip, CD2F1 mice, survival T/C",
  "assay": "NCI In Vivo Anticancer Drug Screen. Data for tumor model P388 Leukemia (intraperitoneal) in CD2F1 (CDF1) mice",
  "details": "endpoint: median survival time, higher = longer survival",
  "procedure,_shortened": "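Mice carrying the transplanted tumor received test compound or vehicle. Survival was recorded in each group, and the value is the treated-group measurement divided by that of the vehicle-treated control group.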",
  "key": {"[1]": {"details": "dose: 12.5 mg/kg/injection, schedule: Q01DX005 (ip), vehicle: Klucel (hydroxypropylcellulose) (HPC)"}, "[2]": {"details": "dose: 25.0 mg/kg/injection, schedule: Q01DX005 (ip), vehicle: Klucel (hydroxypropylcellulose) (HPC)"}, "[3]": {"details": "dose: 50.0 mg/kg/injection, schedule: Q01DX005 (ip), vehicle: Klucel (hydroxypropylcellulose) (HPC)"}, "[4]": {"details": "dose: 100.0 mg/kg/injection, schedule: Q01DX005 (ip), vehicle: Klucel (hydroxypropylcellulose) (HPC)"}, "[5]": {"details": "dose: 200.0 mg/kg/injection, schedule: Q01DX005 (ip), vehicle: Klucel (hydroxypropylcellulose) (HPC)"}, "[6]": {"details": "dose: 60.0 mg/kg/injection, schedule: Q01DX005 (ip), vehicle: saline with Tween-80"}, "[7]": {"details": "dose: 100.0 mg/kg/injection, schedule: Q01DX009 (ip), vehicle: saline with Tween-80"}},
  "note": "Several values for one entry are separate records, joined by “and”; a condition that tells them apart may be missing. Equal entries are not always repeated. Inconclusive results and toxic doses are left out.",
  "data": [
    {"smiles": "CCOP(=O)(OCC)OC(C)CC1CO1", "note": "(configuration not stated)", "values": [
      {"measurement": "T/C", "setting": "dose: 100.0 mg/kg/injection, schedule: Q04DX002 (ip), vehicle: saline", "value": "100 % of control"},
      {"measurement": "T/C", "setting": "dose: 200.0 mg/kg/injection, schedule: Q04DX002 (ip), vehicle: saline", "value": "98 % of control"},
      {"measurement": "T/C", "setting": "dose: 400.0 mg/kg/injection, schedule: Q04DX002 (ip), vehicle: saline", "value": "103 % of control"}
    ]},
    {"smiles": "OCCOCCN1CCN(CCCN2c3ccccc3Sc3ccc(C(F)(F)F)cc32)CC1", "values": [
      {"measurement": "T/C", "setting": "dose: 12.5 mg/kg/injection, schedule: Q04DX003 (ip), vehicle: saline", "value": "114 % of control"},
      {"measurement": "T/C", "setting": "dose: 25.0 mg/kg/injection, schedule: Q04DX003 (ip), vehicle: saline", "value": "117 % of control"}
    ]},
    {"smiles": "C=C1C(=O)OC2C1C(OC(=O)/C(C)=C/C)CC1(C)C(=O)CCC(=C)C21", "note": "(configuration not stated)", "values": [
      {"measurement": "T/C", "setting": "[1]", "value": "110 % of control"},
      {"measurement": "T/C", "setting": "[2]", "value": "104 % of control and 106 % of control and 107 % of control"},
      {"measurement": "T/C", "setting": "[3]", "value": "106 % of control and 109 % of control and 112 % of control"},
      {"measurement": "T/C", "setting": "[4]", "value": "109 % of control"},
      {"measurement": "T/C", "setting": "dose: 150.0 mg/kg/injection, schedule: Q01DX005 (ip), vehicle: Klucel (hydroxypropylcellulose) (HPC)", "value": "107 % of control"},
      {"measurement": "T/C", "setting": "[5]", "value": "108 % of control and 111 % of control"}
    ]},
    {"smiles": "COC(=O)/C(=C/c1ccccc1)N(C(C)=O)C(C)=O", "values": [
      {"measurement": "T/C", "setting": "[6]", "value": "100 % of control"},
      {"measurement": "T/C", "setting": "dose: 120.0 mg/kg/injection, schedule: Q01DX005 (ip), vehicle: saline with Tween-80", "value": "105 % of control"},
      {"measurement": "T/C", "setting": "dose: 240.0 mg/kg/injection, schedule: Q01DX005 (ip), vehicle: saline with Tween-80", "value": "107 % of control"}
    ]},
    {"smiles": "O=C(Nc1cc(Cl)c(Cl)cc1Cl)OCc1ccc2c(c1)OCO2", "values": [
      {"measurement": "T/C", "setting": "dose: 15.0 mg/kg/injection, schedule: Q01DX005 (ip), vehicle: saline with Tween-80", "value": "100 % of control"},
      {"measurement": "T/C", "setting": "dose: 30.0 mg/kg/injection, schedule: Q01DX005 (ip), vehicle: saline with Tween-80", "value": "94 % of control"},
      {"measurement": "T/C", "setting": "[6]", "value": "89 % of control and 91 % of control"}
    ]},
    {"smiles": "O=NN(CCCl)C(=O)NCCSSCCNC(=O)N(CCCl)N=O", "note": "(tested in a mixture with another compound)", "values": [
      {"measurement": "T/C", "setting": "[1]", "value": "179 % of control and 211 % of control"},
      {"measurement": "T/C", "setting": "[2]", "value": "224 % of control"},
      {"measurement": "T/C", "setting": "[3]", "value": "120 % of control and 201 % of control"}
    ]},
    {"smiles": "O=C(CNNC(=O)c1ccncc1)Nc1ccc(S(=O)(=O)c2ccc(NC(=O)CNNC(=O)c3ccncc3)cc2)cc1", "values": [
      {"measurement": "T/C", "setting": "[2]", "value": "89 % of control"},
      {"measurement": "T/C", "setting": "[3]", "value": "90 % of control and 91 % of control"},
      {"measurement": "T/C", "setting": "[5]", "value": "86 % of control"}
    ]},
    {"smiles": "CC(=O)SCC(C)C(=O)N1CCCC1C(=O)NC(Cc1ccccc1)C(=O)O", "note": "(configuration not stated)", "values": [
      {"measurement": "T/C", "setting": "[3]", "value": "110 % of control"},
      {"measurement": "T/C", "setting": "[4]", "value": "98 % of control"},
      {"measurement": "T/C", "setting": "[5]", "value": "104 % of control"}
    ]},
    {"smiles": "O=C(CSC(SCC(=O)Nc1ccccc1)c1ccccc1)Nc1ccccc1", "values": [
      {"measurement": "T/C", "setting": "dose: 60.0 mg/kg/injection, schedule: Q01DX005 (ip), vehicle: Klucel (hydroxypropylcellulose) (HPC)", "value": "101 % of control"},
      {"measurement": "T/C", "setting": "dose: 120.0 mg/kg/injection, schedule: Q01DX005 (ip), vehicle: Klucel (hydroxypropylcellulose) (HPC)", "value": "86 % of control"}
    ]},
    {"smiles": "c1ccc2cc(-c3nc4cccc5c4n3CCC5)ccc2c1", "values": [
      {"measurement": "T/C", "setting": "[7]", "value": "105 % of control"},
      {"measurement": "T/C", "setting": "dose: 200.0 mg/kg/injection, schedule: Q01DX009 (ip), vehicle: saline with Tween-80", "value": "95 % of control"},
      {"measurement": "T/C", "setting": "dose: 400.0 mg/kg/injection, schedule: Q01DX009 (ip), vehicle: saline with Tween-80", "value": "115 % of control"}
    ]},
    {"smiles": "C/C(=N\\NC(=S)N1CCN(C2CCCCC2)CC1)c1ccccn1", "values": [
      {"measurement": "T/C", "setting": "dose: 1.56 mg/kg/injection, schedule: Q01DX005 (ip), vehicle: saline with Tween-80", "value": "103 % of control"},
      {"measurement": "T/C", "setting": "dose: 3.13 mg/kg/injection, schedule: Q01DX005 (ip), vehicle: saline with Tween-80", "value": "106 % of control"},
      {"measurement": "T/C", "setting": "dose: 6.25 mg/kg/injection, schedule: Q01DX005 (ip), vehicle: saline with Tween-80", "value": "101 % of control and 87 % of control"}
    ]},
    {"smiles": "COC(=O)c1ncn(Cc2ccccc2)c1O", "note": "(tested in a mixture with another compound)", "values": [
      {"measurement": "T/C", "setting": "dose: 60.0 mg/kg/injection, schedule: Q01DX005 (ip), vehicle: water", "value": "93 % of control"},
      {"measurement": "T/C", "setting": "dose: 120.0 mg/kg/injection, schedule: Q01DX005 (ip), vehicle: water", "value": "107 % of control"},
      {"measurement": "T/C", "setting": "dose: 240.0 mg/kg/injection, schedule: Q01DX005 (ip), vehicle: water", "value": "110 % of control"}
    ]},
    {"smiles": "O=C1C2C3CCC(C2C(=O)N1CO)C1C2C(=O)N(CO)C(=O)C2C31", "note": "(configuration not stated)", "values": [
      {"measurement": "T/C", "setting": "dose: 12.5 mg/kg/injection, schedule: Q01DX009 (ip), vehicle: saline with Tween-80", "value": "105 % of control"},
      {"measurement": "T/C", "setting": "dose: 25.0 mg/kg/injection, schedule: Q01DX009 (ip), vehicle: saline with Tween-80", "value": "102 % of control and 116 % of control"},
      {"measurement": "T/C", "setting": "dose: 50.0 mg/kg/injection, schedule: Q01DX009 (ip), vehicle: saline with Tween-80", "value": "166 % of control"},
      {"measurement": "T/C", "setting": "[7]", "value": "205 % of control and 208 % of control"}
    ]},
    {"smiles": "Cc1ccc(S(=O)(=O)[n+]2ccccc2)cc1", "values": [
      {"measurement": "T/C", "setting": "dose: 100.0 mg/kg/injection, schedule: Q01DX001 (ip), vehicle: saline", "value": "104 % of control"},
      {"measurement": "T/C", "setting": "dose: 200.0 mg/kg/injection, schedule: Q01DX001 (ip), vehicle: saline", "value": "100 % of control"},
      {"measurement": "T/C", "setting": "dose: 400.0 mg/kg/injection, schedule: Q01DX001 (ip), vehicle: saline", "value": "100 % of control"}
    ]},
    {"smiles": "C=CC(C)(C)C1=CC(=O)C(OC)=CC1=O", "values": [
      {"measurement": "T/C", "setting": "[3]", "value": "100 % of control"},
      {"measurement": "T/C", "setting": "[4]", "value": "103 % of control"},
      {"measurement": "T/C", "setting": "[5]", "value": "100 % of control"}
    ]}
  ]
}
